Test: Stability of crystalline form against polymorphic transformation at 60% relative humidity (PXRD comparison, FIG. 2)
Assay type: physicochemical
Description: FIG. 2 illustrates an X-ray powder diffraction pattern of form X of dexLansoprazole compared with the same form X after a week at 60% relative humidity.
As used herein in connection with form X, the term “stable” refers to stability against transformation, in which no more than about 20% of a polymorphic form transforms to another form under no less than about 60% relative humidity at about room temperature. When made according to the preferred embodiments of the present invention, less than 20% of form X transforms to any other form upon exposure to a RH of 60% at room temperature for a period of 7 days.
For ARL Powder diffractometer (All XRD Figures except FIG. 13):
Sample: Spin/Oscillate mode Range: 2-40 degrees two-theta Scan mode: Continuous scan Step size: 0.05 deg Scan rate: 3 deg./min

amount of the form that transforms to any other form (exposure to RH of 60% at room temperature for 7 days): less than 20%
stability of the crystalline form (PXRD pattern after storage) (relative humidity of 60%, room temperature, 7 days, PXRD, FIG. 2): retains its PXRD pattern
SMILES: Cc1c(OCC(F)(F)F)ccnc1C[S@@+]([O-])c1nc2ccccc2[nH]1 [form X, (R)-2-[(3-methyl-4-(2,2,2-trifluoroethoxy)pyridin-2-yl)methylsulfinyl]-1H-benzoimidazole]

From patent publication US20100113527A1, “CRYSTALLINE FORMS OF DEXLANSOPRAZOLE” (Teva Pharmaceutical Industries Ltd., priority 2008, published 2010)
